Read-outs that look alike come from different tables or passages of the source. Bounds are passed on as bounds.

One test has as its system MOLM-13 cells. Briefly: Cell viability assay (CellTiter-Glo) in MOLM-13 cells, alone or with gilteritinib. As to conditions: Homo sapiens, MOLM-13, 72 h, MOLM-13 cells, three days, CellTiter-Glo. It counts as cell-based. (In general: ATP-based viability assays read luminescence as a measure of living cells.)
For a further test, the system named is MV4;11 cells. Put plainly: Cell viability assay (CellTiter-Glo) in MV4;11 cells, alone or with gilteritinib. Type of test: cell-based. The settings on record: Homo sapiens, MV4-11, 72 h, MV4;11 cells, three days, CellTiter-Glo, read-out: MV4.
The mark [1] stands for this setting: compound alone (without gilteritinib), read-out: MOLM-13 IC50.
Where [2] appears, read: with gilteritinib 20 nM, read-out: MOLM-13 IC50 gilteritinib.
Setting [3] is: compound alone (without gilteritinib), 11 IC50.
The mark [4] stands for this setting: with gilteritinib 10 nM, 11 IC50 gilteritinib.

Consider `N#Cc1cccc2ncc(-c3cnn([C@H]4C[C@H](CCCNc5ccc6c(c5)C(=O)N(C5CCC(=O)NC5=O)C6=O)C4)c3)nc12` (stereo partly drawn) [GS-197, 3-(1-(trans-3-(3-((2-(2,6-Dioxopiperidin-3-yl)-1,3-dioxoisoindolin-5-yl)amino)propyl)cyclobutyl)-1H-pyrazol-4-yl)quinoxaline-5-carbonitrile], for which the IC50 with MOLM-13 cells (setting [1]) lay in the range of 100 to 1000 nM; in the test with MOLM-13 cells (setting [2]), 10 to 100 nM; in the test with MV4;11 cells (setting [3]), 10 to 100 nM; in the test on MV4;11 cells (setting [4]), 10 to 100 nM.
As to `N#Cc1ccc2ncc(-c3cnn([C@H]4C[C@H](CCCNc5ccc6c(c5)C(=O)N(C5CCC(=O)NC5=O)C6=O)C4)c3)nc2c1` (stereo partly drawn) [GS-198, 3-(1-(trans-3-(3-((2-(2,6-Dioxopiperidin-3-yl)-1,3-dioxoisoindolin-5-yl)amino)propyl)cyclobutyl)-1H-pyrazol-4-yl)quinoxaline-6-carbonitrile], the IC50 in the test with MOLM-13 cells (setting [1]) is 100 to 1000 nM; with MOLM-13 cells (setting [2]) it was less than 10 nM; in the test on MV4;11 cells (setting [3]), 10 to 100 nM; with MV4;11 cells (setting [4]), 10 to 100 nM.
In the case of `O=C1CCC(N2C(=O)c3ccc(NCCC[C@H]4C[C@H](n5cc(-c6cnc7ccc(C8CCNCC8)cc7n6)cn5)C4)cc3C2=O)C(=O)N1` (stereo partly drawn) [GS-199, 2-(2,6-Dioxopiperidin-3-yl)-5-((3-(trans-3-(4-(7-(piperidin-4-yl)quinoxalin-2-yl)-1H-pyrazol-1-yl)cyclobutyl)propyl)amino)isoindoline-1,3-dione], the IC50 in the test on MOLM-13 cells (setting [1]) is 100 to 1000 nM; in the test on MOLM-13 cells (setting [2]) it was less than 10 nM; in the test on MV4;11 cells (setting [3]), 10 to 100 nM; in the test on MV4;11 cells (setting [4]), less than 10 nM.
For `Cc1nn([C@H]2C[C@H](CNc3ccc4c(c3)C(=O)N(C3CCC(=O)NC3=O)C4=O)C2)cc1-c1cnc2ccccc2n1` (stereo partly drawn) [GS-200, 2-(2,6-Dioxopiperidin-3-yl)-5-(((trans-3-(3-methyl-4-(quinoxalin-2-yl)-1H-pyrazol-1-yl)cyclobutyl)methyl)amino)isoindoline-1,3-dione], the IC50 with MOLM-13 cells (setting [1]) lay in the range of 100 to 1000 nM; in the test on MOLM-13 cells (setting [2]), 10 to 100 nM; in the test with MV4;11 cells (setting [3]), 100 to 1000 nM; in the test with MV4;11 cells (setting [4]), 10 to 100 nM.
On to `O=C1CCC(N2C(=O)c3ccc(NCCC[C@H]4C[C@H](n5cc(-c6cnc7ccc(F)cc7n6)cn5)C4)cc3C2=O)C(=O)N1` (stereo partly drawn) [GS-201, 2-(2,6-Dioxopiperidin-3-yl)-5-((3-(trans-3-(4-(7-fluoroquinoxalin-2-yl)-1H-pyrazol-1-yl)cyclobutyl)propyl)amino)isoindoline-1,3-dione], for which the IC50 in the test on MOLM-13 cells (setting [1]) was 100 to 1000 nM; in the test with MOLM-13 cells (setting [2]), 10 to 100 nM; in the test on MV4;11 cells (setting [3]), 100 to 1000 nM; in the test on MV4;11 cells (setting [4]) it was 10 to 100 nM.
Take `O=C1CCC(N2C(=O)c3ccc(NCCC[C@H]4C[C@H](n5cc(-c6cnc7ccc(OC8CC8)cc7n6)cn5)C4)cc3C2=O)C(=O)N1` (stereo partly drawn) [GS-202, 5-((3-(trans-3-(4-(7-Cyclopropoxyquinoxalin-2-yl)-1H-pyrazol-1-yl)cyclobutyl)propyl)amino)-2-(2,6-dioxopiperidin-3-yl)isoindoline-1,3-dione]: the IC50 in the test with MOLM-13 cells (setting [1]) is 100 to 1000 nM; in the test with MOLM-13 cells (setting [2]), less than 10 nM; in the test on MV4;11 cells (setting [3]) it was 10 to 100 nM; in the test with MV4;11 cells (setting [4]), less than 10 nM.
In the case of `O=C1CCC(N2C(=O)c3ccc(NCCC[C@H]4C[C@H](n5cc(-c6cnc7ccc(N8C[C@@H]9C[C@H]8CN9)cc7n6)cn5)C4)cc3C2=O)C(=O)N1` (stereo partly drawn) [GS-203, 5-((3-(trans-3-(4-(7-((1S,4S)-2,5-Diazabicyclo[2.2.1]heptan-2-yl)quinoxalin-2-yl)-1H-pyrazol-1-yl)cyclobutyl)propyl)amino)-2-(2,6-dioxopiperidin-3-yl)isoindoline-1,3-dione], the IC50 with MOLM-13 cells (setting [1]) was greater than 1000 nM; in the test with MOLM-13 cells (setting [2]), 10 to 100 nM; in the test on MV4;11 cells (setting [3]), 100 to 1000 nM; with MV4;11 cells (setting [4]) it was 10 to 100 nM.
Take `O=C1CCC(N2C(=O)c3ccc(NCCC[C@H]4C[C@H](n5cc(-c6cnc7ccc(OC8CCNCC8)cc7n6)cn5)C4)cc3C2=O)C(=O)N1` (stereo partly drawn) [GS-204, 2-(2,6-Dioxopiperidin-3-yl)-5-((3-(trans-3-(4-(7-(piperidin-4-yloxy)quinoxalin-2-yl)-1H-pyrazol-1-yl)cyclobutyl)propyl)amino)isoindoline-1,3-dione]: the IC50 was 100 to 1000 nM with MOLM-13 cells (setting [1]), less than 10 nM with MOLM-13 cells (setting [2]), 10 to 100 nM with MV4;11 cells (setting [3]) and 10 to 100 nM with MV4;11 cells (setting [4]).
With `O=C1CCC(N2C(=O)c3ccc(NCCC4CC(C(=O)N5CCC(n6cc(-c7cnc8ccccc8n7)cn6)CC5)C4)cc3C2=O)C(=O)N1` (stereo not drawn) [GS-205, 2-(2,6-Dioxopiperidin-3-yl)-5-((2-(3-(4-(4-(quinoxalin-2-yl)-1H-pyrazol-1-yl)piperidine-1-carbonyl)cyclobutyl)ethyl)amino)isoindoline-1,3-dione], the IC50 in the test on MOLM-13 cells (setting [1]) is 10 to 100 nM; with MOLM-13 cells (setting [2]), less than 10 nM; in the test on MV4;11 cells (setting [3]), 10 to 100 nM; in the test with MV4;11 cells (setting [4]), less than 10 nM.
Turning to `O=C1CCC(N2C(=O)c3ccc(NCCC[C@H]4C[C@H](n5cc(-c6cnc7ccc(Cl)cc7n6)cn5)C4)cc3C2=O)C(=O)N1` (stereo partly drawn) [GS-206, 5-((3-(trans-3-(4-(7-Chloroquinoxalin-2-yl)-1H-pyrazol-1-yl)cyclobutyl)propyl)amino)-2-(2,6-dioxopiperidin-3-yl)isoindoline-1,3-dione], the IC50 in the test on MOLM-13 cells (setting [1]) is 100 to 1000 nM; in the test on MOLM-13 cells (setting [2]), 10 to 100 nM; with MV4;11 cells (setting [3]), 10 to 100 nM; in the test on MV4;11 cells (setting [4]) it was 10 to 100 nM.
On to `O=C1CCC(N2C(=O)c3ccc(NCCC[C@H]4C[C@@H](n5cc(-c6cnc7ccc(N8CCOCC8)cc7n6)cn5)C4)cc3C2=O)C(=O)N1` (stereo partly drawn) [GS-207, 2-(2,6-Dioxopiperidin-3-yl)-5-((3-(cis-3-(4-(7-morpholinoquinoxalin-2-yl)-1H-pyrazol-1-yl)cyclobutyl)propyl)amino)isoindoline-1,3-dione], for which the IC50 is 100 to 1000 nM in the test on MOLM-13 cells (setting [1]), less than 10 nM in the test with MOLM-13 cells (setting [2]), 100 to 1000 nM in the test on MV4;11 cells (setting [3]) and 10 to 100 nM in the test with MV4;11 cells (setting [4]).
With `O=C1CCC(N2C(=O)c3ccc(NCCC[C@H]4C[C@H](n5cc(-c6cnc7ccc(CN8CCOCC8)cc7n6)cn5)C4)cc3C2=O)C(=O)N1` (stereo partly drawn) [GS-208, 2-(2,6-Dioxopiperidin-3-yl)-5-((3-(trans-3-(4-(7-(morpholinomethyl)quinoxalin-2-yl)-1H-pyrazol-1-yl)cyclobutyl)propyl)amino)isoindoline-1,3-dione], the IC50 with MOLM-13 cells (setting [1]) lay in the range of 100 to 1000 nM; with MOLM-13 cells (setting [2]) it was 10 to 100 nM; with MV4;11 cells (setting [3]) it was 100 to 1000 nM; in the test with MV4;11 cells (setting [4]), 10 to 100 nM.
Turning to `O=C1CCC(N2C(=O)c3ccc(NCCC[C@H]4C[C@H](n5cc(-c6cnc7ccc(CN8CCNCC8)cc7n6)cn5)C4)cc3C2=O)C(=O)N1` (stereo partly drawn) [GS-209, 2-(2,6-Dioxopiperidin-3-yl)-5-((3-(trans-3-(4-(7-(piperazin-1-ylmethyl)quinoxalin-2-yl)-1H-pyrazol-1-yl)cyclobutyl)propyl)amino)isoindoline-1,3-dione], the IC50 with MOLM-13 cells (setting [1]) lay in the range of 100 to 1000 nM; with MOLM-13 cells (setting [2]), 10 to 100 nM; with MV4;11 cells (setting [3]), 100 to 1000 nM; with MV4;11 cells (setting [4]) it was 10 to 100 nM.
Consider `O=C1CCC(N2C(=O)c3ccc(NCCC[C@H]4C[C@@H](n5cc(-c6cnc7ccc(C8CCOCC8)cc7n6)c(C(F)(F)F)n5)C4)cc3C2=O)C(=O)N1` (stereo partly drawn) [GS-210, 2-(2,6-Dioxopiperidin-3-yl)-5-((3-(cis-3-(4-(7-(tetrahydro-2H-pyran-4-yl)quinoxalin-2-yl)-3-(trifluoromethyl)-1H-pyrazol-1-yl)cyclobutyl)propyl)amino)isoindoline-1,3-dione], for which the IC50 in the test with MOLM-13 cells (setting [1]), with MOLM-13 cells (setting [2]), in the test on MV4;11 cells (setting [3]) and with MV4;11 cells (setting [4]) was less than 10 nM each time.
For `O=C1CCC(N2C(=O)c3ccc(NCCCCC(=O)N4CCC(n5cc(-c6cnc7ccc(N8CCNCC8)cc7n6)c(C6CC6)n5)CC4)cc3C2=O)C(=O)N1` (stereo not drawn) [GS-211, 5-((5-(4-(3-Cyclopropyl-4-(7-(piperazin-1-yl)quinoxalin-2-yl)-1H-pyrazol-1-yl)piperidin-1-yl)-5-oxopentyl)amino)-2-(2,6-dioxopiperidin-3-yl)isoindoline-1,3-dione], the IC50 in the test with MOLM-13 cells (setting [1]) was 10 to 100 nM; in the test on MOLM-13 cells (setting [2]) it was less than 10 nM; in the test with MV4;11 cells (setting [3]), 10 to 100 nM; in the test with MV4;11 cells (setting [4]) it was less than 10 nM.
`O=C1CCC(N2C(=O)c3ccc(NCCC[C@H]4C[C@H](n5cc(-c6cnc7ccc(C(F)(F)F)cc7n6)cn5)C4)cc3C2=O)C(=O)N1` (stereo partly drawn) [GS-212, 2-(2,6-Dioxopiperidin-3-yl)-5-((3-(trans-3-(4-(7-(trifluoromethyl)quinoxalin-2-yl)-1H-pyrazol-1-yl)cyclobutyl)propyl)amino)isoindoline-1,3-dione]: the IC50 in the test with MOLM-13 cells (setting [1]), with MOLM-13 cells (setting [2]), in the test with MV4;11 cells (setting [3]) and in the test on MV4;11 cells (setting [4]) was 10 to 100 nM each time.
On to `O=C1CCC(N2C(=O)c3ccc(NCCC[C@H]4C[C@@H](n5cc(-c6cnc7ccc(C8CCOCC8)cc7n6)c(C6CC6)n5)C4)cc3C2=O)C(=O)N1` (stereo partly drawn) [GS-213, 5-((3-(cis-3-(3-Cyclopropyl-4-(7-(tetrahydro-2H-pyran-4-yl)quinoxalin-2-yl)-1H-pyrazol-1-yl)cyclobutyl)propyl)amino)-2-(2,6-dioxopiperidin-3-yl)isoindoline-1,3-dione], for which the IC50 with MOLM-13 cells (setting [1]), in the test with MOLM-13 cells (setting [2]), in the test on MV4;11 cells (setting [3]) and with MV4;11 cells (setting [4]) was less than 10 nM throughout.
For `O=C1CCC(N2C(=O)c3ccc(NCCC[C@H]4C[C@@H](n5cc(-c6cnc7ccc(NC8CCNCC8)cc7n6)cn5)C4)cc3C2=O)C(=O)N1` (stereo partly drawn) [GS-214, 2-(2,6-Dioxopiperidin-3-yl)-5-((3-(cis-3-(4-(7-(piperidin-4-ylamino)quinoxalin-2-yl)-1H-pyrazol-1-yl)cyclobutyl)propyl)amino)isoindoline-1,3-dione], the IC50 with MOLM-13 cells (setting [1]) was greater than 1000 nM; in the test on MOLM-13 cells (setting [2]), 10 to 100 nM; in the test on MV4;11 cells (setting [3]), 100 to 1000 nM; in the test with MV4;11 cells (setting [4]) it was 10 to 100 nM.
